Results: patent publication US12527849B2, “Apparatus for determining administration form of a composition of an engineered virus-based nanoparticle for a treatment of an autoimmune condition” (Diamante Srl, priority 2021, dated 2026)

Test system: NOD mice
Experiment: Diabetes-free survival of NOD mice (Kaplan-Meier analysis, log-rank test)
Type: in vivo
Conditions: two i.p. treatments, 2 weeks between doses, 50 μg per mouse
From the text: With continued reference to FIG. 1, as another non-limiting example, administration 116 of composition of the engineered virus-based nanoparticle for a treatment of an autoimmune disease may be done to nonobese diabetic (NOD) mice. In another non-limiting example, administration 116 of composition of the engineered virus-based nanoparticle for a treatment of an autoimmune disease may be done to any animal disclosed in this disclosure, such as but not limited to a human. Four-week-old female NOD mice may be obtained from Charles River Laboratories and may be housed under specific pathogen-free conditions in the animal facility at the University of Perugia, with ad libitum access to water and food. NOD mice may be randomly subdivided into four groups. In group 1 (n=18), CPMV·p524opt [50 μg per mouse, resuspended in 100 μl of phosphate-buffered saline (PBS)] may be injected twice intraperitoneally, with 2 weeks between doses. […] Mice may be monitored for the appearance of clinical signs of diabetes and may be euthanized when the disease was confirmed by glucosuria. […]
With continued reference to FIG. 1, in some embodiments, processor 104 may determine critical administration 124 as a function of a statistical comparison between administration groups 132. […] As a non-limiting example, a Kaplan-Meier analysis may be calculated using the following formula: […]

“p524opt: p524 sequence adjusted to a pI of 8.59 (SEQ ID NO. 2), synthetic peptide given with IFA (DSRLSKVAPVIKARMMED)” was tested, and the “protection from the onset of diabetes (in words)” value was “no protective effect”.
